Values joined by “and” are separate entries in the source; they are usually repeats but may differ in a detail not shown here. Identical values can stand only once.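 Five concentrations, 48 hours, 96-well plates. GI50: concentration for 50% inhibition of growth. The concentration for full growth arrest is given as TGI.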

Some test systems named below: SN12K1 renal; HOP-18 NSCLC; DMS 273 small cell lung; P388/ADR leukemia; DMS 114 small cell lung; KM20L2 colon; M19-MEL melanoma; XF 498 CNS; SNB-78 CNS; P388 leukemia; LXFL 529 NSCLC; RXF-631 renal.
Experiment in all cases: NCI tumour cell line growth inhibition, 48 h

Consider `CC(=O)Oc1c(OC(C)=O)c(-c2ccc(O)c(O)c2)c(O)c(O)c1-c1ccc(O)cc1`, for which the GI50 in the assay on SN12K1 renal was 48.6 µM; in the assay on DMS 273 small cell lung, 67.1 µM; in the assay on DMS 114 small cell lung, 19.1 µM; with KM20L2 colon it was 40.7 µM; with M19-MEL melanoma, 18.1 µM; with XF 498 CNS, 46 µM. In the assay with SNB-78 CNS, the GI50 is more than 100 µM. Moreover, the TGI was more than 100 µM with SN12K1 renal; more than 100 µM in the assay with HOP-18 NSCLC; more than 100 µM with DMS 273 small cell lung; 50 µM with P388/ADR leukemia; 44 µM and 57.4 µM in the assay on DMS 114 small cell lung; more than 100 µM in the assay with KM20L2 colon. Also, the TGI in the assay on M19-MEL melanoma is 53.7 µM and 68.5 µM; with XF 498 CNS, more than 100 µM; in the assay on SNB-78 CNS it was more than 100 µM.
`CN1OC(=O)N(C)C1c1ccccc1` (stereo not given): the TGI in the assay on P388 leukemia, in the assay with SN12K1 renal, in the assay on HOP-18 NSCLC, in the assay on DMS 273 small cell lung, with P388/ADR leukemia and with DMS 114 small cell lung was more than 100 µM in each case. Also, the TGI in the assay on KM20L2 colon, in the assay on M19-MEL melanoma, with XF 498 CNS and with SNB-78 CNS was more than 100 µM throughout.
As to `Nc1ccn(C2OC(COP(=O)(O)Oc3ccccc3)C(O)C2O)c(=O)n1` (stereo not given), the TGI is 15.7 µM in the assay with P388 leukemia; more than 100 µM with SN12K1 renal; 98.1 µM with HOP-18 NSCLC; more than 100 µM in the assay on DMS 273 small cell lung; more than 100 µM with P388/ADR leukemia; more than 100 µM with DMS 114 small cell lung. In addition, the TGI in the assay with KM20L2 colon, with M19-MEL melanoma and with SNB-78 CNS was more than 100 µM each time.
Consider `COc1cc(CC2c3cc(OC)c(OC)cc3CCN2C)c(Oc2cc3c(cc2OC)-c2c(OC)c(OC)c(OC)c4c2C(C3)N(C)CC4)cc1OC` (stereo not given), for which the TGI with HOP-18 NSCLC came out at 31.1 µM; in the assay with DMS 273 small cell lung, 26.2 µM; with DMS 114 small cell lung it was 26 µM; in the assay on KM20L2 colon, 17.8 µM; in the assay with M19-MEL melanoma, 28.6 µM; in the assay on XF 498 CNS it was 26.6 µM. Also, the TGI was 34.5 µM in the assay on SNB-78 CNS and 27.1 µM in the assay on LXFL 529 NSCLC.
As to `CNC(=O)CN1CC(=O)N(C)C(=O)C1`, the TGI in the assay with DMS 273 small cell lung, in the assay on KM20L2 colon, in the assay on M19-MEL melanoma, in the assay with XF 498 CNS, with SNB-78 CNS and in the assay with LXFL 529 NSCLC was more than 100 µM in each case.
In the case of `CCN(CC)CCNc1ccc(C)c2sc3ccc(O)cc3c(=O)c12`, the TGI in the assay on HOP-18 NSCLC came out at 5.94 µM; in the assay with DMS 273 small cell lung, 1.91 µM; in the assay with DMS 114 small cell lung it was 2.27 µM; in the assay with KM20L2 colon it was 5.46 µM; in the assay with M19-MEL melanoma, 2.36 µM; in the assay with XF 498 CNS, 2.56 µM. For the same compound, the TGI with SNB-78 CNS was 7.88 µM; with LXFL 529 NSCLC it was 2.54 µM.
For `C=C1C(=O)OC2/C=C(\C)C(O)/C=C\C(C)(O)CC(OC(=O)/C(C)=C/C)C12` (stereo not given), the TGI with HOP-18 NSCLC is more than 100 µM; in the assay with DMS 273 small cell lung it was 37.3 µM; in the assay with DMS 114 small cell lung, more than 78.2 µM; in the assay on KM20L2 colon, more than 38.5 µM; with M19-MEL melanoma it was 37 µM; with XF 498 CNS, more than 58.4 µM. Moreover, the results for the TGI in the assay with RXF-631 renal, in the assay on SNB-78 CNS and with LXFL 529 NSCLC were more than 100 µM, more than 100 µM and 29.1 µM, respectively.
Regarding `COc1ccc2c(c1)c1cc(OC)ccc1n2CCCCOc1ccc(-c2c3ccccc3c(-c3ccc(OCCCCn4c5ccc(OC)cc5c5cc(OC)ccc54)cc3)c3ccccc23)cc1`, the TGI in the assay with DMS 273 small cell lung, in the assay on DMS 114 small cell lung, with KM20L2 colon, in the assay with M19-MEL melanoma and with XF 498 CNS was more than 100 µM throughout.
On to `COc1cc2c(cc1OC)C(Cl)C(c1cc(OC)c(OC)c(OC)c1)=C2Cl` (stereo not given), for which the TGI with HOP-18 NSCLC came out at 32.3 µM; with DMS 273 small cell lung, 34.6 µM; in the assay on DMS 114 small cell lung, 26.2 µM; with KM20L2 colon it was 36.6 µM; with M19-MEL melanoma, 28.7 µM; in the assay on RXF-631 renal, 38.2 µM. Besides, the TGI in the assay with SNB-78 CNS is 46.4 µM; with LXFL 529 NSCLC it was 24.6 µM.
Turning to `Cc1ccc2[nH]c3c(C)c4ccncc4c(C)c3c2c1`, the TGI with P388 leukemia came to 3.09 µM; in the assay with SN12K1 renal, 2.29 µM; in the assay with HOP-18 NSCLC, 4.6 µM; in the assay with DMS 273 small cell lung it was 2.13 µM; in the assay on P388/ADR leukemia, 3.62 µM; with DMS 114 small cell lung, 2.71 µM. Moreover, the TGI stood at 5.57 µM with KM20L2 colon; 2.75 µM in the assay with M19-MEL melanoma; 3 µM in the assay with XF 498 CNS; 4.64 µM in the assay with SNB-78 CNS; 2.42 µM with LXFL 529 NSCLC.

The values above are taken from PubChem BioAssay (NCI).
